According to PMC12669040, “Tumour-specific STING agonist synthesis via a two-component prodrug system” (Nature Chemistry, 2025):
“And” between values parts separate entries of the source, which are not always exact repeats. Identical values can stand only once.

Legend:
[1] = Haematotoxicity, CT26mβGUS model; format: in vivo, BALB/c mice; parameters: WBC / RBC: unit not given here
Source text: MCV: Mean Corpuscular Volume; MCH: Mean Corpuscular Haemoglobin; WBC: White Blood Cell Count; PLT: Platelet Count; RDW-CV: Red Cell Distribution Width - Coefficient of Variation; MPV: Mean Platelet Volume. RBC: red blood cell count; HGB: haemoglobin; HCT: haematocrit; MCV: Mean Corpuscular Volume; MCH: Mean Corpuscular Haemoglobin; WBC: White Blood Cell Count; PLT: Platelet Count; RDW-CV: Red Cell Distribution Width - Coefficient of Variation; MPV: Mean Platelet Volume. […] Source data

[2] = tested on: THP-1 Lucia ISG cells (interferon pathway); assay: Potency test of purified dimers on THP-1 Lucia ISG reporter cells; format: cell-based, human; details: for EC50: three biological replicates, read-out: EC50, THP-1 Lucia interferon reporter; for Raw readings: replicates 1-3, duplicate wells
Method: Cells were pelleted (150g, 10 min) and resuspended in the growth medium (40% conditioned) at a density of 1 × 10^6 cells ml^−1. The cell suspension was dispensed (50 µl each well) into a lidded white 96-well plate (BrandTech 781665). Test compounds or DMSO control were diluted in the growth medium and sterilized by filtering through 0.22-µm polyethersulfone (PES) membranes (Merck SLGP033RS). […] Upon cooling down to room temperature, 50 µl of reconstituted luciferase substrate (InvivoGen QUANTI-Luc) was added to each well via the injector of the plate reader (Molecular Devices SpectraMax i3x), and the luminescence output was recorded (4 s delay, 0.1 s integration). Raw signals were divided by the averaged signal of the DMSO-treated control wells and reported in relative luminescence unit (RLU). The dose–response curve of each replicate was fitted individually using the standard 4PL model (GraphPad Prism). The EC50 value of each compound was averaged from three independent experiments and reported as mean ± s.e.m.

[3] = Day0, individual mice, in % (unit assumed)
[4] = Day0, individual mice, in pg (unit assumed)
[5] = Day5, individual mice, in % (unit assumed)
[6] = Day5, individual mice, in fL (unit assumed)
[7] = Day5, individual mice, in g/dL (unit assumed)
[8] = Homo sapiens, THP1-Lucia ISG, 24 h

COc1cc2cc(C(=O)CCC(=O)O)sc2cc1OC [MSA2]
HGB ([1]; Day0, individual mice): 16.5 and 15.6 (2×) and 14.5 | MPV ([1]; Day0, individual mice): 6.5 and 7.1 and 7.9 | PLT ([1]; Day0, individual mice): 1210 and 892 and 696 and 576 | RBC ([1]; Day0, individual mice): 10.94 and 10.54 and 10.66 and 9.7 | RDW-CV ([1]; Day0, individual mice): 14.4 and 15.1 (2×) and 15.3 | WBC ([1]; Day0, individual mice): 7.1 and 7.7 and 8.8 and 8.2 | HCT [1, 3]: 53.4 and 52.7 and 52.8 and 48.8 | MCV ([1]; Day0, individual mice, in fL (unit assumed)): 48.8 and 50 and 49.5 and 50.3 | MCH [1, 4]: 15.1 and 14.8 and 14.6 and 14.9 | MCH ([1]; Day5, individual mice): 14.9 pg (3×) and 15 pg | MPV ([1]; Day5, individual mice): 6.6 and 7.6 (2×) and 6.8 | PLT ([1]; Day5, individual mice): 1244 and 920 and 808 and 855 | RBC ([1]; Day5, individual mice): 10 and 8.31 and 9.87 and 7.92 | RDW-CV ([1]; Day5, individual mice): 16 and 14.5 and 14.4 (2×) | WBC ([1]; Day5, individual mice): 8.6 and 8 and 9.3 and 7.4 | HCT [1, 5]: 51.7 and 43.1 and 50.2 and 40.6 | MCV [1, 6]: 51.7 and 51.9 and 50.9 and 51.3 | HGB [1, 7]: 14.9 and 12.4 and 14.8 and 11.8 | red blood cells, haemoglobin and haematocrit ([1]; MSA2 5 mg kg^−1 IT): modest decreases | fold induction at 0.244141 µM ([2]; Homo sapiens, THP1-Lucia ISG, 24 h, Concentration 0.244141 μM, three replicates, read-out: Processed reporter response per replicate (reading relative to DMSO)): 1.21 | fold induction at 0.976563 µM ([2]; Homo sapiens, THP1-Lucia ISG, 24 h, Concentration 0.976563 μM, three replicates, read-out: Processed reporter response per replicate (reading relative to DMSO)): 1.26 | fold induction at 1.95312 µM ([2]; Homo sapiens, THP1-Lucia ISG, 24 h, Concentration 1.95312 μM, three replicates, read-out: Processed reporter response per replicate (reading relative to DMSO)): 0.95 | fold induction at 3.90625 µM ([2]; Homo sapiens, THP1-Lucia ISG, 24 h, Concentration 3.90625 μM, three replicates, read-out: Processed reporter response per replicate (reading relative to DMSO)): 1.7 | fold induction at 15.625 µM ([2]; Homo sapiens, THP1-Lucia ISG, 24 h, Concentration 15.625 μM, three replicates, read-out: Processed reporter response per replicate (reading relative to DMSO)): 316 | fold induction at 31.25 µM ([2]; Homo sapiens, THP1-Lucia ISG, 24 h, Concentration 31.25 μM, three replicates, read-out: Processed reporter response per replicate (reading relative to DMSO)): 499 | fold induction at 62.5 µM ([2]; Homo sapiens, THP1-Lucia ISG, 24 h, Concentration 62.5 μM, three replicates, read-out: Processed reporter response per replicate (reading relative to DMSO)): 530 | fold induction at 125 µM ([2]; Homo sapiens, THP1-Lucia ISG, 24 h, Concentration 125 μM, three replicates, read-out: Processed reporter response per replicate (reading relative to DMSO)): 553 | EC50 [2, 8]: 15 µM | Raw readings ([2]; MSA2 0.244141 uM): 644 RLU and 918 RLU and 1550 RLU and 217 RLU and 421 RLU | Raw readings ([2]; MSA2 0.488281 uM): 365 RLU and 407 RLU and 1564 RLU and 1732 RLU and 767 RLU and 301 RLU | Raw readings ([2]; MSA2 0.976563 uM): 533 RLU and 812 RLU and 1033 RLU and 1215 RLU and 1749 RLU and 577 RLU | Raw readings ([2]; MSA2 1.95312 uM): 558 RLU and 456 RLU and 1596 RLU and 1428 RLU and 16030 RLU and 391 RLU | Raw readings ([2]; MSA2 3.90625 uM): 737 RLU and 1083 RLU and 2552 RLU and 2286 RLU and 91800 RLU and 972 RLU | Raw readings ([2]; MSA2 7.8125 uM): 10329 RLU and 8090 RLU and 44667 RLU and 40124 RLU and 159658 RLU and 39192 RLU | Raw readings ([2]; MSA2 15.625 uM): 182029 RLU and 155323 RLU and 290195 RLU and 281155 RLU and 218467 RLU and 180884 RLU | Raw readings ([2]; MSA2 31.25 uM): 283415 RLU and 249220 RLU and 393493 RLU and 394488 RLU and 219551 RLU and 327473 RLU | Raw readings ([2]; MSA2 62.5 uM): 293238 RLU and 272508 RLU and 497557 RLU and 499850 RLU and 276937 RLU and 389453 RLU | Raw readings ([2]; MSA2 125 uM): 315598 RLU and 275220 RLU and 511799 RLU and 524474 RLU and 276606 RLU and 386234 RLU

COc1cc2sc(C(=O)CCC(=O)O)cc2cc1SCCSc1cc2cc(C(=O)CCC(=O)O)sc2cc1OC [SC2S]
MCV ([1]; Day0, individual mice): 55 and 51.6 and 50 (2×) | MPV ([1]; Day0, individual mice): 8 and 7.6 and 6.7 and 7.2 | PLT ([1]; Day0, individual mice): 670 and 896 and 1143 and 870 | RBC ([1]; Day0, individual mice): 9.65 and 10.31 and 10.59 and 10.89 | WBC ([1]; Day0, individual mice): 11 and 10 and 8.7 and 8.4 | HCT [1, 3]: 53.1 and 53.2 and 53 and 54.5 | RDW-CV [1, 3]: 14.7 and 15.1 and 14.8 and 15 | HGB ([1]; Day0, individual mice, in g/dL (unit assumed)): 14.6 and 15.3 and 15.8 and 16.3 | MCH [1, 4]: 15.1 and 14.8 and 14.9 and 15 | MCH ([1]; Day5, individual mice): 15.1 and 14.7 and 15.2 (2×) | MPV ([1]; Day5, individual mice): 7.6 (2×) and 6.6 | PLT ([1]; Day5, individual mice): 155 and 541 and 770 and 1292 | RBC ([1]; Day5, individual mice): 8.22 and 9.33 and 9.82 and 10.19 | WBC ([1]; Day5, individual mice): 9.2 and 10.4 and 6.6 (2×) | HCT [1, 5]: 42 and 49.9 and 50.4 and 52 | RDW-CV [1, 5]: 14 and 14.3 and 16.7 and 15.7 | MCV [1, 6]: 51.1 and 50.3 and 51.3 and 51 | HGB [1, 7]: 12.4 and 13.7 and 14.9 and 15.5 | fold induction at 0.048828 µM ([2]; Homo sapiens, THP1-Lucia ISG, 24 h, Concentration 0.048828 μM, three replicates, read-out: Processed reporter response per replicate (reading relative to DMSO)): 1.32 | fold induction at 1.5625 µM ([2]; Homo sapiens, THP1-Lucia ISG, 24 h, Concentration 1.5625 μM, three replicates, read-out: Processed reporter response per replicate (reading relative to DMSO)): 332 | fold induction at 3.125 µM ([2]; Homo sapiens, THP1-Lucia ISG, 24 h, Concentration 3.125 μM, three replicates, read-out: Processed reporter response per replicate (reading relative to DMSO)): 425 | fold induction at 6.25 µM ([2]; Homo sapiens, THP1-Lucia ISG, 24 h, Concentration 6.25 μM, three replicates, read-out: Processed reporter response per replicate (reading relative to DMSO)): 434 | fold induction at 12.5 µM ([2]; Homo sapiens, THP1-Lucia ISG, 24 h, Concentration 12.5 μM, three replicates, read-out: Processed reporter response per replicate (reading relative to DMSO)): 407 | EC50 [2, 8]: 0.71 µM | Raw readings ([2]; SC2S 0.024414 uM): 620 RLU and 583 RLU and 1367 RLU and 1519 RLU and 365 RLU and 638 RLU | Raw readings ([2]; SC2S 0.048828 uM): 577 RLU and 837 RLU and 1473 RLU and 1276 RLU and 668 RLU and 425 RLU | Raw readings ([2]; SC2S 0.097656 uM): 783 RLU and 620 RLU and 2316 RLU and 2552 RLU and 1504 RLU and 372 RLU | Raw readings ([2]; SC2S 0.195313 uM): 2302 RLU and 2526 RLU and 10005 RLU and 13263 RLU and 15158 RLU and 614 RLU | Raw readings ([2]; SC2S 0.390625 uM): 13233 RLU and 15402 RLU and 73880 RLU and 85525 RLU and 96208 RLU and 759 RLU | Raw readings ([2]; SC2S 0.78125 uM): 80951 RLU and 92499 RLU and 198651 RLU and 223105 RLU and 189225 RLU and 37417 RLU | Raw readings ([2]; SC2S 1.5625 uM): 175164 RLU and 179560 RLU and 265669 RLU and 303539 RLU and 222866 RLU and 166854 RLU | Raw readings ([2]; SC2S 3.125 uM): 222262 RLU and 231080 RLU and 301434 RLU and 333311 RLU and 245937 RLU and 322808 RLU | Raw readings ([2]; SC2S 6.25 uM): 230364 RLU and 232723 RLU and 323434 RLU and 349356 RLU and 281517 RLU and 362047 RLU | Raw readings ([2]; SC2S 12.5 uM): 216991 RLU and 217865 RLU and 313187 RLU and 335098 RLU and 238105 RLU and 315297 RLU
